# Source: article PMC7999182, “Interaction of Remdesivir with Clinically Relevant Hepatic Drug Uptake Transporters” (Pharmaceutics, 2021)
# Target: T1, OATP1B3 (Homo sapiens, UniProt Q9NPD5)
# T1 construct: expressed in transfected cells
# T1 sequence (Q9NPD5 1-702): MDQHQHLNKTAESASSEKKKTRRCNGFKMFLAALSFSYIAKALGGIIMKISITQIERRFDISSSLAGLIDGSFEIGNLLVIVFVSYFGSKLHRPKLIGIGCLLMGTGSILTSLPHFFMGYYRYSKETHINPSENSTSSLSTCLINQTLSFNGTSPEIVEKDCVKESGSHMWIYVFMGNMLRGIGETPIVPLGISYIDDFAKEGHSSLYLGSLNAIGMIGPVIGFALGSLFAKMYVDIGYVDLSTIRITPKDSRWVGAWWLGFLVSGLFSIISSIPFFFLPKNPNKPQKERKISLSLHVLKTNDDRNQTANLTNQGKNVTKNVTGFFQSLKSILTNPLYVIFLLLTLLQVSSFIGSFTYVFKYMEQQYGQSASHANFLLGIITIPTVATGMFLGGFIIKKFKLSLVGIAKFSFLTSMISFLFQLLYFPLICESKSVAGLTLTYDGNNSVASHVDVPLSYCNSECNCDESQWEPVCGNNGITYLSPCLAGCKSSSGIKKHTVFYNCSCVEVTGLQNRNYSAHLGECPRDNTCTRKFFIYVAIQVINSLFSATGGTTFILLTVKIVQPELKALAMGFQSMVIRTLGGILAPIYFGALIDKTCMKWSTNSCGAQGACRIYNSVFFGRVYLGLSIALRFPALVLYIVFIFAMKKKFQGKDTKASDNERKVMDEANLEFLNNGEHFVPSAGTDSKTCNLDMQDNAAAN
# Assay: Inhibition of OATP1B3-mediated estradiol glucuronide uptake
# Assay type: cell-based
# Text: Generation, cultivation and characterization of human embryonic kidney (HEK) cells stably expressing OATP1B1 refseq (=OATP1B1*1a), OATP1B1*1b, OATP1B1*5 and OATP1B1*15 [18], OATP1B3 [19], OATP2B1 [13] and OCT1 [20] have been described previously. OATP1B1 cells were cultivated in minimal essential medium (Life Technologies, Paisley, UK) and OATP1B3, OATP2B1 and OCT1 cells were cultivated in Dulbecco’s modified Eagle medium (Sigma, Darmstadt, Germany). Cultivation media were supplemented with 10% fetal calf serum, 100 U/mL penicillin and 100 µg/mL streptomycin. Cells were grown at 37 °C and 5% CO2. Functionality of the cells was confirmed by measuring uptake of prototypic substrates (see Section 2.3 and supplementary material).
# Prototypic substrate uptake was performed as described previously. For this, uptake solutions contained the respective substrate with tracer amounts of radiolabeled substrate. In case of inhibition studies, uptake solutions additionally contained different concentrations of remdesivir. […] Cells were then lysed with 0.2% sodium dodecyl sulfate and intracellular radioactivity was measured by liquid scintillation counting (Tricarb2800, PerkinElmer Life Sciences GmbH, Rodgau, Germany or Hidex 300SL TDCR liquid scintillation counter, Turku, Finland). […]
smiles,measurement,setting,value
CCC(CC)COC(=O)[C@H](C)N[P@](=O)(OC[C@H]1O[C@@](C#N)(c2ccc3c(N)ncnn23)[C@H](O)[C@@H]1O)Oc1ccccc1 [Remdesivir],Effect on prototypic substrate uptake,"5 µM estradiol glucuronide, 5 min uptake, different remdesivir concentrations",significant concentration-dependent inhibitory effect
same,Transporter inhibition at 10 µM,"10 µM remdesivir, estradiol glucuronide as substrate",inhibition
